Test results as given in patent publication US12215132B2, “Methods, compositions and uses thereof for reversing sarcopenia” (The Trustees of Columbia University in the City of New York, priority 2020, dated 2025).
“Also recorded” adds a separate entry of the source. Read-outs that look alike come from different tables or passages of the source.

How the values were obtained:
[1] = test system: dexamethasone-treated mice
Method: It was also further examined whether an osteocalcin treatment might preserve muscle function and/or muscle mass in a clinically relevant mouse model of sarcopenia.
In another recognized model of sarcopenia, the efficacy of osteocalcin has been tested. Specifically, dexamethasone delivered by pumps ([…]) for 28 days has been used in mice. Another group of mice received Dexamethasone plus osteocalcin also delivered by pumps.
FIG. 9A and FIG. 9B show exemplary graphs pf exemplary modeling sarcopenia in mice.

[2] = test system: animal models; details: in vivo
[3] = test system: Liver Factor 1; test: Liver Factor 1 production during exercise; type: in vivo
Excerpt: OCN signaling in the liver is required for exercise capacity (see FIG. 6). OCN enhances Liver Factor 1 production during exercise (see FIG. 7). Liver Factor 1 mediates OCN regulation of exercise capacity (see FIG. 8).

[4] = test system: young and 12 to 15 month-old mice; details: data of WO 2016/081728, cited from earlier work
[5] = dexamethasone-treated mice, co-treatment with test substance
[6] = one-month chronic infusion of dexamethasone, mice

With N#Cc1ccc(N2CCC[C@@H]2[C@@H](O)C(F)(F)F)cc1C(F)(F)F [VK5211, reference compound] the muscle mass [1, 5] was “fully restored muscle mass to normal levels” and the “running capacity / exercise capacity” value [1, 5] was “modest effect”.

In the case of “osteocalcin: Osteocalcin, a bone-derived hormone; small (46-50 amino acid residues) bone specific protein (YLYQWLGAPVPYPDPLEPRREVCELNPDCDELADHIGFQEAYRR; listed as Homo sapiens)”, the negative side-effects [2] is given as “safe with no recorded negative side-effects”, the “Liver Factor 1 production” value [3] is given as “enhances” and the exercise capacity ([4]; 12 to 15 month-old mice) is given as “confers to 15 months-old mice exercise capacity of 3 month-old mice; also recorded: confers to 12 to 15 month-old mice the exercise capacity of 3 month-old mice”. The exercise capacity ([4]; young mice) was “increases the exercise capacity”, the IL-6 ([1]; Dex-induced sarcopenia) was “favors IL-6” and the “muscle function versus muscle mass; comparison with VK5211” value ([1]; Dex-induced sarcopenia) was “outperforms”. For the same compound, the “muscle function versus muscle mass; comparison with VK5211” value ([1]; Dex-induced sarcopenia, listed as OCN) was “mainly targets muscle function”, the muscle mass ([1]; dexamethasone-treated mice, co-treatment with test substance, listed as OCN) was “marginal effect” and the off-target effects ([1]; mouse, in vivo) was “no overt off-target effects”. For the same compound, the “deleterious effect of dexamethasone on muscle function” value ([1]; osteocalcin given to mice that had already received dexamethasone for two weeks) was “partially revert”.

In the case of C[C@@H]1C[C@H]2[C@@H]3CCC4=CC(=O)C=C[C@]4(C)[C@@]3(F)[C@@H](O)C[C@]2(C)[C@@]1(O)C(=O)CO [dexamethasone, reference compound], the “ability to run on a treadmill” value ([1]; mouse, in vivo) is reported as “decreased”, the muscle mass ([1]; mouse, in vivo) is reported as “decreased” and the “decrease of gastrocnemius muscle mass” value [1, 6] is reported as 30%. The “reduction of running capacity” value [1, 6] was 50%.
